How the values were obtained:
Experiment in all cases: relative viability (nuclei count vs DMSO), 5 days (fraction); higher = more cells survive
[1] = compound: CC1=NN=C(O1)C2=NN=C(C=C2)N3CCC(CC3)OC4=C(C=CC(=C4)F)Cl + C[C@]1(O)C[C@@H](c2nc(-c3ccc4ccc(-c5ccccc5)nc4c3)c3c(N)nccn32)C1 [Linsitinib] (partner 1 µM)
Summary of the method: (§1)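 Medians of duplicate plates are given as relative viability. That measure is the nuclei count in treated wells divided by the count in vehicle wells. Counts were taken on 4× images of lung cancer cell lines in 1536-well plates, 5 days after pin-tool dosing the day after seeding with one drug alone or a fixed anchor-drug dose plus five library-drug doses (not always all listed) in √10 steps.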

[2] = compound: CC1=NN=C(O1)C2=NN=C(C=C2)N3CCC(CC3)OC4=C(C=CC(=C4)F)Cl + COc1cccc2cc(-c3nc([C@H]4CC[C@H](C(=O)O)CC4)n4ncnc(N)c34)[nH]c12 [OSI-027] (partner 0.5 µM)
Summary of the method: as §1

[3] = compound: CC1=NN=C(O1)C2=NN=C(C=C2)N3CCC(CC3)OC4=C(C=CC(=C4)F)Cl + Cc1nc(NC(=O)N2CCC[C@H]2C(N)=O)sc1-c1ccnc(C(C)(C)C(F)(F)F)c1 [Alpelisib] (partner 2 µM)
Summary of the method: as §1

[4] = compound: CC1=NN=C(O1)C2=NN=C(C=C2)N3CCC(CC3)OC4=C(C=CC(=C4)F)Cl + O=C(CCCCCCC(=O)Nc1ccccc1)NO [Vorinostat] (partner 1 µM)
Summary of the method: as §1

Cell Line	relative viability ([1]; first compound 0.253 µM)	relative viability ([1]; first compound 0.8 µM)	relative viability ([1]; first compound 2.53 µM)	relative viability ([1]; first compound 8 µM)	relative viability ([2]; first compound 0.253 µM)	relative viability ([2]; first compound 0.8 µM)	relative viability ([2]; first compound 2.53 µM)	relative viability ([2]; first compound 8 µM)	relative viability ([3]; first compound 0.253 µM)	relative viability ([3]; first compound 0.8 µM)	relative viability ([3]; first compound 2.53 µM)	relative viability ([3]; first compound 8 µM)	relative viability ([4]; first compound 0.253 µM)	relative viability ([4]; first compound 0.8 µM)	relative viability ([4]; first compound 2.53 µM)	relative viability ([4]; first compound 8 µM)
NCI-H1437	0.552	0.644	0.689	0.487	0.697	0.742	0.795	0.614	0.696	0.63	0.804	0.591	0.492	0.491	0.523	0.376
EBC-1	0.549	0.558	0.623	0.57					0.752	0.908	0.756	0.74				
NCI-H441	0.571	0.419	0.473	0.396	0.579	0.347	0.603	0.52	0.826	0.674	0.542	0.532	0.424	0.384	0.302	0.382
NCI-H2087	0.646	0.659	0.621	0.53	0.641	0.422	0.422	0.3	0.762	0.674	0.615	0.615	0.242	0.376	0.408	0.291
NCI-H647	0.759	0.805	0.616	0.582	0.516	0.423	0.453	0.207	0.724	0.715	0.764	0.704	0.204	0.136	0.0766	0.0534
SW 1573	0.805	0.727	0.74	0.673	0.643	0.52	0.562	0.4	0.753	0.722	0.701	0.791	0.717	0.421	0.434	0.251
HARA	0.705	0.394	0.451	0.308	0.404	0.206	0.359	0.348	0.54	0.479	0.516	0.481	0.476	0.345	0.499	0.432
NCI-H2347	0.636	0.69	0.766	0.658		0.366	0.463	0.354	0.788	0.758	0.801	0.682	0.629	0.597	0.428	0.501
NCI-H1651	0.857	0.873	0.807	0.801	0.73	0.597	0.717	0.697	0.821	0.78	0.777	0.75	0.431	0.241	0.389	0.336
NCI-H2342					0.57	0.531	0.515	0.522					0.551	0.551	0.583	0.436
NCI-H2009	0.684	0.636	0.623	0.589	0.673	0.618	0.605	0.564	0.712	0.714	0.646	0.626	0.428	0.343	0.422	0.36
